# Key:
# Assay type in all cases: physicochemical
# [1] = strain-promoted 1,3-dipolar cycloaddition kinetics with benzyl azide (experimental second order rate constants); conditions: for k2: 1,3-dipolar cycloaddition with benzyl azide 5, acetonitrile, ambient temperatures; for krel.: reaction with benzyl azide, relative to 4b = 1.0; for Experimental Rate: CD3CN; for change of rate of reaction with benzyl azide, in words: relative to the comparator alkyne
# Description: The reactivity of the novel strained alkyne derivatives disclosed herein were first assessed using benzyl azide 5 as a model substrate (Table 1, model reaction at top). […] When steric hindrance was increased by placing the more bulky isopropyl group at C1, the rate of the reaction slowed to a sixth of that of […]. […] The effects of the heteroatoms in the ring were similarly pronounced. […] For Me-substituted substrates 4a and 4d, the rates slowed to roughly half their unprotected values. While a more electron-poor nitrogen heteroatom is expected to result in a stronger electronic effect and an expected increase in reaction rate, the conflicting effects of bond lengthening and steric repulsion between the Boc and R^1 groups overrides any benefit and results in a net slowing of rate. Similarly, when the homopropargylic oxygen atom was replaced with a Boc-protected nitrogen atom, the rate fell dramatically to an eighteenth of that of the sulfamate (4f). The fastest substrate, 1a, compares favorably to other reported strained alkynes. It is faster than OCT, the exocyclic heteroatom-activated MOFO, and the endocyclic heteroatom-activated alkynes reported by Toomoka et al., supra. The reaction rate of 1a is surpassed only slightly by DIFO.
# With the difluorinated SNO-OCT 8a in hand, preliminary kinetic studies were carried out (Table 7) and compared to computed and experimental rates of both the parent SNO-OCTs 4 and 6, as well as 8. A rate enhancement of 13-fold was predicted in moving from the parent SNO-OCT 6 (entry 1, right column) to the difluorinated SNO-OCT 8 (entry 3, right column) in reactions with alkyl azides; this was quite similar to the experimental rate enhancement seen in moving from 4 to 8a of 18× (entries 1 and 3 in the left column).
# [2] = experimental cycloaddition of SNO-OCTs with diazoacetamide; conditions: dipole diazoacetamide; CD3CN
# Description: A rate enhancement of ˜300-fold was predicted in moving from the parent SNO-OCT 6 (entry 2, right column) to the difluorinated SNO-OCT 8 (entry 4, right column) in reactions with alkyl diazaoacetamides. Experimentally, the rate enhancement in moving from 4 to 8a (entries 2 and 4 in the left column) could not be determined using proton NMR spectroscopy to monitor the progress of the reaction. […] While orthogonality was also observed for reactions of 4 and 8a with azides, the selectivity appeared to be lower than that predicted for the diazoalkanes.
# [3] = experimental rate comparison of cycloalkynes with diazoacetamide 8 and azidoacetamide 7; conditions: ratio of rate constants with diazoacetamide and azidoacetamide
# Description: For these exploratory studies, diazoacetamide 8 (Table 3) and azidoacetamide 7 were chosen because of the increased nucleophilicity of 8 as compared to azide 7 and its ability to survive cellular metabolism. When comparing rate differences with diazoacetamide 8 and azidoacetamide 7 for common cycloalkynes, DIBAC reacted˜5-times faster with the diazoacetamide than the analogous azide in 1:1 CD3CN:D2O. […] At the same time, these compounds provide for complete selectivity that is as of yet lacking in cyclooctynes. It was hypothesized by the present inventors that properly positioned heteroatoms in sulfamate-derived cyclooctynes would lead to an increase in diazo-selective reactivity over azides, thus enabling orthogonal bioconjugation techniques.
# The effects of the various heteroatoms on this increased chemoselectivity were investigated computationally. […] In contrast, the ΔΔG‡ is expected to increase, likely due to increased steric repulsion from the bulky Boc-group. This difference in rate provides ˜9:1 selectivity in competition experiments involving 1:1:1 mixtures of diazoacetamide […]:alkyne (4d, 4e). Efforts to improve the selectivity for reaction with 1 were undertaken by examining the effects of both propargylic and homopropargylic heteroatoms in 4.
Compound,k2 [1] [M⁻¹ s⁻¹],krel. [1],"change of rate of reaction with benzyl azide, in words [1]",further results
CCCCCC1C#CCCN(C(=O)OC(C)(C)C)S(=O)(=O)N1 (stereo not drawn) [4h],0.0014,0.056,,
CCC1C#CC(F)(F)COS(=O)(=O)N1 (stereo not drawn) [8a],,,,Experimental Rate ([1]; dipole Bn—N3): 0.46 M⁻¹ s⁻¹; experimental rate enhancement in moving from 4 ([1]; reactions with alkyl azides (Bn—N3)): 18 ×
CCCCCC1C#CCCOS(=O)(=O)N1 (stereo not drawn) [compound 4],,,,Experimental Rate [2]: 0.27 M⁻¹ s⁻¹
CC1C#CCCOS(=O)(=O)N1C(=O)OC(C)(C)C (stereo not drawn) [4d],0.037,1.5,roughly half,"k2 ratio, diazoacetamide:azidoacetamide ([3]; in CD3CN): 5.0"
CCCCCC1C#CCCOS(=O)(=O)N1 (stereo not drawn) [4b],,1.0,,
CC(C)C1C#CCCOS(=O)(=O)N1 (stereo not drawn) [4c],0.0040,0.16,a sixth,
"dibenzoazacyclooctyne [DIBAC, reference compound]",,,,"k2 ratio, diazoacetamide:azidoacetamide ([3]; CD3CN:D2O = 1:1): 6.5; k2 ratio, diazoacetamide:azidoacetamide ([3]; in CD3CN): 2.0"
CC1C#CC(C)NS(=O)(=O)OC1 (stereo not drawn) [4g],0.047,1.9,,
[N-]=[N+]=NCc1ccccc1 [compound 5],,,,"Experimental Rate (value in parentheses) ([1]; dipole Bn—N3, 2:1 D2O:CD3CN): 0.13 M⁻¹ s⁻¹; Experimental Rate ([1]; dipole Bn—N3): 0.087 M⁻¹ s⁻¹"
CC1C#CCCOS(=O)(=O)N1 (stereo not drawn) [4a],0.066,2.6,,"k2 ratio, diazoacetamide:azidoacetamide ([3]; CD3CN:D2O = 1:1): 8.5; k2 ratio, diazoacetamide:azidoacetamide ([3]; in CD3CN): 3.0"
CC(C)C1C#CCCOS(=O)(=O)N1C(=O)OC(C)(C)C (stereo not drawn) [4f],,,an eighteenth,
CCCCCC1C#CCCOS(=O)(=O)N1C(=O)OC(C)(C)C (stereo not drawn) [4e],0.042,1.7,slowed slightly,

# From patent US10676449B2, “Electronically activated strained alkynes” (Wisconsin Alumni Research Foundation, priority 2017, dated 2020)
